Data from ChEMBL document CHEMBL1201862, “PubChem BioAssay data set” (2004).
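48-hour exposure; five concentrations; linearly interpolated endpoints. Abbreviation: GI50, concentration required for 50% inhibition of growth.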 Activity calls are given as the source filed them. Cut-off read from the data, not from the text of the source: active = GI50 up to about 1.1 µM and inactive = higher.

Legend:
Test in all cases: NCI-60 cell line screen, 48 h
A549 = system: A549
CCRF-CEM = system: CCRF-CEM
HOP-92 = system: HOP-92
SF-268 = system: SF-268
OVCAR-3 = system: OVCAR-3
OVCAR-4 = system: OVCAR-4
UO-31 = system: UO-31
M14 = system: M14
HOP-62 = system: HOP-62
LOX IMVI = system: LOX IMVI
K562 = system: K562
NCI-H460 = system: NCI-H460
HT-29 = system: HT-29
RXF 393 = system: RXF 393
HCC 2998 = system: HCC 2998
SF-539 = system: SF-539
SW-620 = system: SW-620
NCI-H522 = system: NCI-H522
Malme-3M = system: Malme-3M

SMILES	GI50 (A549)	GI50 (CCRF-CEM)	GI50 (HOP-92)	GI50 (SF-268)	GI50 (OVCAR-3)	GI50 (OVCAR-4)	GI50 (UO-31)	GI50 (M14)	GI50 (HOP-62)	GI50 (LOX IMVI)	GI50 (K562)	GI50 (NCI-H460)	GI50 (HT-29)	GI50 (RXF 393)	GI50 (HCC 2998)	GI50 (SF-539)	GI50 (SW-620)	GI50 (NCI-H522)	GI50 (Malme-3M)
O=c1cc(CO)oc2c3c(cc(O)c12)OCC(COC1OC(CO)C(O)C(O)C1O)=CC3 (centres undefined)	> 100 µM (inactive)	> 100 µM (inactive)	> 100 µM (inactive)	> 100 µM (inactive)	> 100 µM (inactive)	> 100 µM (inactive)	> 100 µM (inactive)	> 100 µM (inactive)	> 100 µM (inactive)	> 100 µM (inactive)	> 100 µM (inactive)	> 100 µM (inactive)	> 100 µM (inactive)	> 100 µM (inactive)	> 100 µM (inactive)	> 100 µM (inactive)	> 100 µM (inactive)	> 100 µM (inactive)	
c1ccc(C(c2ccccc2)c2ccccn2)cc1	> 100 µM (inactive)	> 100 µM (inactive)		> 100 µM (inactive)	> 100 µM (inactive)	> 100 µM (inactive)	> 100 µM (inactive)	> 100 µM (inactive)	> 100 µM (inactive)	> 100 µM (inactive)	> 100 µM (inactive)	> 100 µM (inactive)	> 100 µM (inactive)		> 100 µM (inactive)	> 100 µM (inactive)	> 100 µM (inactive)		> 100 µM (inactive)
COC(=O)C1=C(C(=O)OC)C2(c3ccccc3)OC1(c1ccccc1)c1cc3ccccc3cc12	2.43 µM (inactive)	0.451 µM (active)	1.09 µM (active)	1.73 µM (inactive)	1.37 µM (inactive)	1.7 µM (inactive)	1.42 µM (inactive)	1.79 µM (inactive)	13.3 µM (inactive)	1.32 µM (inactive)	1.51 µM (inactive)	3.56 µM (inactive)	1.77 µM (inactive)	1.29 µM (inactive)	1.95 µM (inactive)	1.67 µM (inactive)	1.76 µM (inactive)	1.23 µM (inactive)	1.6 µM (inactive)
CCO/C=C1\N=C(c2ccc(Cl)c(Cl)c2)OC1=O	> 100 µM (inactive)	> 100 µM (inactive)	> 100 µM (inactive)	> 100 µM (inactive)	> 100 µM (inactive)	> 100 µM (inactive)	36.6 µM (inactive)	> 100 µM (inactive)	50 µM (inactive)	> 100 µM (inactive)	> 100 µM (inactive)	> 100 µM (inactive)	> 100 µM (inactive)	79.8 µM (inactive)	> 100 µM (inactive)	> 100 µM (inactive)	> 100 µM (inactive)	89.5 µM (inactive)	> 100 µM (inactive)
Cc1ccc(/C=C2\CCCCC2=O)cc1	> 100 µM (inactive)	28.1 µM (inactive)		> 100 µM (inactive)	> 100 µM (inactive)	33.6 µM (inactive)	78.9 µM (inactive)	49.9 µM (inactive)	> 100 µM (inactive)	31.5 µM (inactive)	25.7 µM (inactive)	80.9 µM (inactive)	46.6 µM (inactive)			> 100 µM (inactive)	> 100 µM (inactive)		
CCc1ccccc1NC(=O)CC1NC(=O)CS1 (centres undefined)	> 100 µM (inactive)	> 100 µM (inactive)	> 100 µM (inactive)	> 100 µM (inactive)	> 100 µM (inactive)	> 100 µM (inactive)	> 100 µM (inactive)	> 100 µM (inactive)	> 100 µM (inactive)	> 100 µM (inactive)	> 100 µM (inactive)	> 100 µM (inactive)		> 100 µM (inactive)	> 100 µM (inactive)	> 100 µM (inactive)	> 100 µM (inactive)	> 100 µM (inactive)	55.2 µM (inactive)
COC(=O)C(=O)C(C(=O)C(=O)Nc1cc([N+](=O)[O-])ccc1C#N)c1nc2ccccc2nc1O (centres undefined)	> 100 µM (inactive)	> 100 µM (inactive)	40.6 µM (inactive)	> 100 µM (inactive)	> 100 µM (inactive)	> 100 µM (inactive)	99.3 µM (inactive)	> 100 µM (inactive)	> 100 µM (inactive)	> 100 µM (inactive)		> 100 µM (inactive)	> 100 µM (inactive)	> 100 µM (inactive)	> 100 µM (inactive)	> 100 µM (inactive)	> 100 µM (inactive)	> 100 µM (inactive)	> 100 µM (inactive)
CC(=O)O[C@H]1C(=O)[C@@]2(C)C([C@H](OC(=O)c3ccccc3)[C@]3(O)C[C@H](OC(=O)[C@H](O)[C@H](NC(=O)c4ccccc4)c4ccc(Cl)cc4)C(C)=C1C3(C)C)C1(OC(C)=O)CO[C@@H]1C[C@@H]2O (some centres undefined)	0.000678 µM (active)	0.00188 µM (active)		0.00156 µM (active)	0.00222 µM (active)	0.889 µM (active)	0.733 µM (active)	0.00224 µM (active)	0.00839 µM (active)	< 0.0001 µM (active)	0.000807 µM (active)	0.000557 µM (active)	0.000106 µM (active)	0.0149 µM (active)	0.000813 µM (active)	0.000367 µM (active)	0.000497 µM (active)	0.000356 µM (active)	0.00239 µM (active)
CC(CCc1ccc2c(c1)c(N)c1ccc(N)cc1[n+]2[O-])CC(C)(C)C (centres undefined)	1.63 µM (inactive)	0.542 µM (active)		2.2 µM (inactive)	1.73 µM (inactive)	2.05 µM (inactive)	8.95 µM (inactive)	1.75 µM (inactive)	1.83 µM (inactive)	1.52 µM (inactive)	0.621 µM (active)	0.597 µM (active)	1.22 µM (inactive)	2 µM (inactive)	1.55 µM (inactive)	1.93 µM (inactive)	1.68 µM (inactive)		1.87 µM (inactive)
COC(=O)c1c(N)n[nH]c1N	> 100 µM (inactive)	> 100 µM (inactive)	> 100 µM (inactive)	> 100 µM (inactive)	> 100 µM (inactive)	> 100 µM (inactive)	> 100 µM (inactive)	> 100 µM (inactive)	> 100 µM (inactive)	> 100 µM (inactive)	> 100 µM (inactive)	> 100 µM (inactive)		> 100 µM (inactive)	> 100 µM (inactive)	> 100 µM (inactive)	> 100 µM (inactive)	> 100 µM (inactive)	
Clc1ccc(C(n2cc(Br)cn2)n2cc(Br)cn2)cc1	14.7 µM (inactive)	21.3 µM (inactive)	15 µM (inactive)	16.4 µM (inactive)	14.1 µM (inactive)	12 µM (inactive)	0.267 µM (active)	16.8 µM (inactive)	17.8 µM (inactive)		18 µM (inactive)	16.1 µM (inactive)	13.2 µM (inactive)	14.5 µM (inactive)	16.4 µM (inactive)	> 10 µM (inactive)	17 µM (inactive)	13.3 µM (inactive)	15.8 µM (inactive)
Cc1c2n(c(=O)[nH]c1=O)C1OC(CO)C(N=[N+]=[N-])C1O2 (centres undefined)	> 100 µM (inactive)	> 100 µM (inactive)	49.5 µM (inactive)	> 100 µM (inactive)	> 100 µM (inactive)	> 100 µM (inactive)	> 100 µM (inactive)		> 100 µM (inactive)	> 100 µM (inactive)	92.5 µM (inactive)	> 100 µM (inactive)	> 100 µM (inactive)	28 µM (inactive)		> 100 µM (inactive)	> 100 µM (inactive)	90.6 µM (inactive)	
CC1(C)c2ccccc2N2C(c3ccccc3)=NOC21C (centres undefined)	> 100 µM (inactive)	> 100 µM (inactive)	> 100 µM (inactive)	> 100 µM (inactive)	> 100 µM (inactive)	> 100 µM (inactive)	> 100 µM (inactive)	> 100 µM (inactive)	> 100 µM (inactive)	> 100 µM (inactive)	> 100 µM (inactive)	> 100 µM (inactive)	> 100 µM (inactive)	> 100 µM (inactive)		> 100 µM (inactive)	> 100 µM (inactive)	> 100 µM (inactive)	> 100 µM (inactive)
CCCOP1(=O)C=C(C)C(Cl)=C(C)C1 (centres undefined)	21.6 µM (inactive)	15 µM (inactive)	18.4 µM (inactive)	14.6 µM (inactive)	25.2 µM (inactive)	26.9 µM (inactive)	45.3 µM (inactive)	15.3 µM (inactive)	42.4 µM (inactive)	13.3 µM (inactive)	24.7 µM (inactive)	31.2 µM (inactive)	22.1 µM (inactive)	18 µM (inactive)	54.7 µM (inactive)	25.7 µM (inactive)	17.1 µM (inactive)	15 µM (inactive)	
CN(CC1NCCCC1O)C12CC3CC(CC(C3)C1)C2 (centres undefined)	> 100 µM (inactive)	> 100 µM (inactive)	> 100 µM (inactive)	> 100 µM (inactive)	> 100 µM (inactive)	> 100 µM (inactive)	> 100 µM (inactive)	> 100 µM (inactive)	> 100 µM (inactive)	> 100 µM (inactive)	70.8 µM (inactive)	> 100 µM (inactive)	> 100 µM (inactive)		> 100 µM (inactive)	> 100 µM (inactive)	> 100 µM (inactive)	> 100 µM (inactive)	> 100 µM (inactive)
NC(=S)N/N=C1\C(=O)N(CCc2ccccc2)C(=O)C1C(=O)NCCc1ccccc1 (centres undefined)			> 100 µM (inactive)	> 100 µM (inactive)	> 100 µM (inactive)	> 100 µM (inactive)	> 100 µM (inactive)	> 100 µM (inactive)	> 100 µM (inactive)	> 100 µM (inactive)	> 100 µM (inactive)	> 100 µM (inactive)	> 100 µM (inactive)	> 100 µM (inactive)	> 100 µM (inactive)	> 100 µM (inactive)	> 100 µM (inactive)	> 100 µM (inactive)	> 100 µM (inactive)
